Target: T1, F508delCFTR cell surface expression in CFBE41o-F508delCFTR-HRP cells (Homo sapiens, UniProt P13569, DEL508-508)
T1 construct: fused on or other part: Horseradish peroxidase (HRP) reporter inserted in the fourth exofacial (extracellular) loop of CFTR; expression is doxycycline-inducible
Test: Cell Surface Expression-Horse Radish Peroxidase (CSE-HRP) Assay
Type: cell-based
Conditions: for EC50: CFBE41o-F508delCFTR-HRP cells, 18-24 hours at 33° C., 8-point curve, highest concentration 20 μM; for Maximum % activity (%): maximum at any tested concentration, normalized to on-plate positive control (3 μM)
Method in brief: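 CFBE41o- cells with HRP-tagged F508delCFTR, expression induced by 0.5 μg/mL doxycycline for 72 h at 37 °C, then compound for 18-24 h at 33 °C (8-point, 3-fold, top 20 μM). Surface HRP measured by luminol luminescence; % activity normalised to 3 μM positive-control corrector; EC50 from variable-slope sigmoidal fit, three replicate plates.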

T1 sequence (P13569 with tags, fused parts or gaps DEL508-508 limits assumed): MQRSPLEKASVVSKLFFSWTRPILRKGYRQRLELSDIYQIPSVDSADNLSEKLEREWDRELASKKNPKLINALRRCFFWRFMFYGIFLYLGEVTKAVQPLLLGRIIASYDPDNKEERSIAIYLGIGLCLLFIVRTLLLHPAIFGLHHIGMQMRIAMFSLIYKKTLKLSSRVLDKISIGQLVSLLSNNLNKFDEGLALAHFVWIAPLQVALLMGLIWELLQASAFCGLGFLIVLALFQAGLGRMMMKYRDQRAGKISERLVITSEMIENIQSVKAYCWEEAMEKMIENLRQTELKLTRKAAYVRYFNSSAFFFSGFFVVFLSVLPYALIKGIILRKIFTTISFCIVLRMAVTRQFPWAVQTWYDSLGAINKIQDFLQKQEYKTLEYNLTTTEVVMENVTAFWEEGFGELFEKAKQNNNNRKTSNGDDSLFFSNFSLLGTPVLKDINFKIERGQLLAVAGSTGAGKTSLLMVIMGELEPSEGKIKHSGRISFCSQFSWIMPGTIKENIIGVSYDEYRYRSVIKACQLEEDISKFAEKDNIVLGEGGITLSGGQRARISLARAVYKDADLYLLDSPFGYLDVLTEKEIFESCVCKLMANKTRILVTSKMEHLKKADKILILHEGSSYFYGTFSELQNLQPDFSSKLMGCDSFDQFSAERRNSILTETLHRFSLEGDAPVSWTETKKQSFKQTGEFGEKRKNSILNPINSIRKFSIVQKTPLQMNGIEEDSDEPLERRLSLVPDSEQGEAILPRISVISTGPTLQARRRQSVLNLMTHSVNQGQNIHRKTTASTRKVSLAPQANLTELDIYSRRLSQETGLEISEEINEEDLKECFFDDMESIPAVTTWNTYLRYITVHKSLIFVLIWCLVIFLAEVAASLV
T1 sequence (P13569 919-1480 limits assumed, stated change not applied): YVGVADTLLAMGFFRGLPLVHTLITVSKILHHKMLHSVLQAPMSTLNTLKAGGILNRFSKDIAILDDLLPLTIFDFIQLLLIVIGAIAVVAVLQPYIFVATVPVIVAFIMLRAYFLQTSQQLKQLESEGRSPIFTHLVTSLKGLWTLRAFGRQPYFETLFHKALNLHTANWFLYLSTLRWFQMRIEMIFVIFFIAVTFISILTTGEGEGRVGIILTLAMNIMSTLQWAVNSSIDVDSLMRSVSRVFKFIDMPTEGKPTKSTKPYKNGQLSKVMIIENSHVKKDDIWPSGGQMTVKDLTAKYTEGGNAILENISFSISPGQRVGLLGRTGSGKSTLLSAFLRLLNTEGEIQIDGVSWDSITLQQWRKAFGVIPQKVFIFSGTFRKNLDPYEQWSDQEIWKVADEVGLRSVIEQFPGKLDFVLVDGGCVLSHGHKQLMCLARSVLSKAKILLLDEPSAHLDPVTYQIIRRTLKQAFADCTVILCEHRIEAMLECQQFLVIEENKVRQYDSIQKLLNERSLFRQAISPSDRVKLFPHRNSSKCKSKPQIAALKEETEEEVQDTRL

EC50 | Maximum % activity (%) | Structure (SMILES)
50 nM | 114% | CCN(CCO)C(=O)c1ccc([C@H]2C[C@@H](NC(=O)[C@@]3(C)COc4cc5c(cc43)OC(F)(F)O5)c3ccc(OC)cc3O2)nc1 [Example 235, 6-[(2R,4R)-4-{[(7R)-2,2-difluoro-7-methyl-6,7-dihydro-2H-furo[2,3-f][1,3]benzodioxole-7-carbonyl]amino}-7-methoxy-3,4-dihydro-2H-1-benzopyran-2-yl]-N-ethyl-N-(2-hydroxyethyl)pyridine-3-carboxamide]
70 nM | 131% | COc1ccc2c(c1)O[C@@H](c1ccc(C(=O)N(CCO)CCO)cn1)C[C@H]2NC(=O)[C@@]1(C)COc2cc3c(cc21)OC(F)(F)O3 [Example 236, 6-[(2R,4R)-4-{[(7R)-2,2-difluoro-7-methyl-6,7-dihydro-2H-furo[2,3-f][1,3]benzodioxole-7-carbonyl]amino}-7-methoxy-3,4-dihydro-2H-1-benzopyran-2-yl]-N,N-bis(2-hydroxyethyl)pyridine-3-carboxamide]
50 nM | 121% | COc1ccc2c(c1)O[C@@H](c1ccc(C(=O)N3CCOC(CO)C3)cn1)C[C@H]2NC(=O)[C@@]1(C)COc2cc3c(cc21)OC(F)(F)O3 (stereo partly drawn) [Example 237, (7R)-2,2-difluoro-N-[(2R,4R)-2-{5-[2-(hydroxymethyl)morpholine-4-carbonyl]pyridin-2-yl}-7-methoxy-3,4-dihydro-2H-1-benzopyran-4-yl]-7-methyl-6,7-dihydro-2H-furo[2,3-f][1,3]benzodioxole-7-carboxamide]
80 nM | 113% | COc1ccc2c(c1)O[C@@H](c1ccc(C(=O)N3CCC(O)(CCO)C3)cn1)C[C@H]2NC(=O)[C@@]1(C)COc2cc3c(cc21)OC(F)(F)O3 (stereo partly drawn) [Example 238, (7R)-2,2-difluoro-N-[(2R,4R)-2-{5-[3-hydroxy-3-(2-hydroxyethyl)pyrrolidine-1-carbonyl]pyridin-2-yl}-7-methoxy-3,4-dihydro-2H-1-benzopyran-4-yl]-7-methyl-6,7-dihydro-2H-furo[2,3-f][1,3]benzodioxole-7-carboxamide]
40 nM | 111% | COc1ccc2c(c1)O[C@@H](c1ccc(C(=O)N3CC(O)(CCO)C3)cn1)C[C@H]2NC(=O)[C@@]1(C)COc2cc3c(cc21)OC(F)(F)O3 [Example 239, (7R)-2,2-difluoro-N-[(2R,4R)-2-{5-[3-hydroxy-3-(2-hydroxyethyl)azetidine-1-carbonyl]pyridin-2-yl}-7-methoxy-3,4-dihydro-2H-1-benzopyran-4-yl]-7-methyl-6,7-dihydro-2H-furo[2,3-f][1,3]benzodioxole-7-carboxamide]
60 nM | 132% | COc1ccc2c(c1)O[C@@H](c1ccc(C(=O)N3CCOCC3CO)cn1)C[C@H]2NC(=O)[C@@]1(C)COc2cc3c(cc21)OC(F)(F)O3 (stereo partly drawn) [Example 240, (7R)-2,2-difluoro-N-[(2R,4R)-2-{5-[3-(hydroxymethyl)morpholine-4-carbonyl]pyridin-2-yl}-7-methoxy-3,4-dihydro-2H-1-benzopyran-4-yl]-7-methyl-6,7-dihydro-2H-furo[2,3-f][1,3]benzodioxole-7-carboxamide]
40 nM | 110% | COc1ccc2c(c1)O[C@@H](c1ccc(C(=O)NCC(C)O)cn1)C[C@H]2NC(=O)[C@@]1(C)COc2cc3c(cc21)OC(F)(F)O3 (stereo partly drawn) [Example 241, 6-[(2R,4R)-4-{[(7R)-2,2-difluoro-7-methyl-6,7-dihydro-2H-furo[2,3-f][1,3]benzodioxole-7-carbonyl]amino}-7-methoxy-3,4-dihydro-2H-1-benzopyran-2-yl]-N-(2-hydroxypropyl)pyridine-3-carboxamide]
40 nM | 116% | COc1ccc2c(c1)O[C@@H](c1ccc(C(=O)NC(C)CO)cn1)C[C@H]2NC(=O)[C@@]1(C)COc2cc3c(cc21)OC(F)(F)O3 (stereo partly drawn) [Example 242, 6-[(2R,4R)-4-{[(7R)-2,2-difluoro-7-methyl-6,7-dihydro-2H-furo[2,3-f][1,3]benzodioxole-7-carbonyl]amino}-7-methoxy-3,4-dihydro-2H-1-benzopyran-2-yl]-N-(1-hydroxypropan-2-yl)pyridine-3-carboxamide]
30 nM | 114% | COc1ccc2c(c1)O[C@@H](c1ccc(C(=O)NCCO)cn1)C[C@H]2NC(=O)[C@@]1(C)COc2cc3c(cc21)OC(F)(F)O3 [Example 244, 6-[(2R,4R)-4-{[(7R)-2,2-difluoro-7-methyl-6,7-dihydro-2H-furo[2,3-f][1,3]benzodioxole-7-carbonyl]amino}-7-methoxy-3,4-dihydro-2H-1-benzopyran-2-yl]-N-(2-hydroxyethyl)pyridine-3-carboxamide]
50 nM | 107% | COc1ccc2c(c1)O[C@@H](c1ccc(C(=O)NC[C@H]3C[C@H](O)C3)cn1)C[C@H]2NC(=O)[C@@]1(C)COc2cc3c(cc21)OC(F)(F)O3 [Example 245, 6-[(2R,4R)-4-{[(7R)-2,2-difluoro-7-methyl-6,7-dihydro-2H-furo[2,3-f][1,3]benzodioxole-7-carbonyl]amino}-7-methoxy-3,4-dihydro-2H-1-benzopyran-2-yl]-N-[(trans-3-hydroxycyclobutyl)methyl]pyridine-3-carboxamide]
80 nM | 125% | COCC(CO)NC(=O)c1ccc([C@H]2C[C@@H](NC(=O)[C@@]3(C)COc4cc5c(cc43)OC(F)(F)O5)c3ccc(OC)cc3O2)nc1 (stereo partly drawn) [Example 246, 6-[(2R,4R)-4-{[(7R)-2,2-difluoro-7-methyl-6,7-dihydro-2H-furo[2,3-f][1,3]benzodioxole-7-carbonyl]amino}-7-methoxy-3,4-dihydro-2H-1-benzopyran-2-yl]-N-(1-hydroxy-3-methoxypropan-2-yl)pyridine-3-carboxamide]
1180 nM | 181% | CC1(C)OC[C@H](CN2CCC([C@H]3C[C@@H](NC(=O)[C@@]4(C)COc5cc6c(cc54)OC(F)(F)O6)c4ccc(OC(F)(F)F)cc4O3)CC2)O1 [Example 247, (7R)—N-[(2R,4R)-2-(1-{[(4S)-2,2-dimethyl-1,3-dioxolan-4-yl]methyl}piperidin-4-yl)-7-(trifluoromethoxy)-3,4-dihydro-2H-1-benzopyran-4-yl]-2,2-difluoro-7-methyl-6,7-dihydro-2H-furo[2,3-f][1,3]benzodioxole-7-carboxamide]
100 nM | 110% | COc1ccc2c(c1)O[C@@H](c1ccc(C(=O)N3C[C@H](O)[C@@H](O)C3)cn1)C[C@H]2NC(=O)[C@@]1(C)COc2cc3c(cc21)OC(F)(F)O3 [Example 249, (7R)—N-[(2R,4R)-2-{5-[(3S,4S)-3,4-dihydroxypyrrolidine-1-carbonyl]pyridin-2-yl}-7-methoxy-3,4-dihydro-2H-1-benzopyran-4-yl]-2,2-difluoro-7-methyl-6,7-dihydro-2H-furo[2,3-f][1,3]benzodioxole-7-carboxamide]
60 nM | 150% | CCN(CCO)C(=O)[C@H]1CC[C@H]([C@H]2C[C@@H](NC(=O)[C@@]3(C)COc4cc5c(cc43)OC(F)(F)O5)c3ccc(OC(F)(F)F)cc3O2)CC1 [Example 253, (7R)—N-[(2R,4R)-2-{trans-4-[ethyl(2-hydroxyethyl)carbamoyl]cyclohexyl}-7-(trifluoromethoxy)-3,4-dihydro-2H-1-benzopyran-4-yl]-2,2-difluoro-7-methyl-6,7-dihydro-2H-furo[2,3-f][1,3]benzodioxole-7-carboxamide]

— patent US9840513B2 (AbbVie S.à.r.l., priority 2015, dated 2017)
